According to ChEMBL document CHEMBL5360520, “Catalytic covalent inhibition of cyclooxygenase-1 by a biomimetic acyltransferase” (Bioorg Med Chem, 2022):
pIC50, pKi: −log10 of the molar value. The source made the active and inactive calls. The rule behind the calls is not given here.

What was measured:
[1] = target: T1, Prostaglandin G/H synthase 1 (Ovis aries) (UniProt P05979); assay: Covalent inhibition of recombinant ovine COX-1 using arachidonic acid as substrate assessed as reduction in PGE2 production preincubated with compound followed by substrate addition and measured after 10 mins by LC-MS/MS analysis; details: time 70-310 min, TDE = time-dependent effect
T1 sequence (whole entry): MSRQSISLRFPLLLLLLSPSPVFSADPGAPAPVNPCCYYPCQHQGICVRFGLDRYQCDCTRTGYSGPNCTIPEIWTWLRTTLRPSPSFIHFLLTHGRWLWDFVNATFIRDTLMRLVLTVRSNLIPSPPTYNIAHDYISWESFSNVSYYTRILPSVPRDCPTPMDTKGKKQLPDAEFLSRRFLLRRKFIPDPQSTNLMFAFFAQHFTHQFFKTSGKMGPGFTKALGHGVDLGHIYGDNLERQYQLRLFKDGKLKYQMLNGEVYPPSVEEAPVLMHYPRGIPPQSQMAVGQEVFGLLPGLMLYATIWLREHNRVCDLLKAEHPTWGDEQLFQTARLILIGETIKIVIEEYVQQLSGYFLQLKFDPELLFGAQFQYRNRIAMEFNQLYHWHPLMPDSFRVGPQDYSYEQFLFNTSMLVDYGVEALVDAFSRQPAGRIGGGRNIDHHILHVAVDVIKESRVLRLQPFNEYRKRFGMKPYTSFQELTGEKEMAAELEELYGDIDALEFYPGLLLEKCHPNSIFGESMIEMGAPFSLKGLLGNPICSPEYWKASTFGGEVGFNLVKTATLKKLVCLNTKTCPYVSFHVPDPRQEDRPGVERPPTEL

[2] = target: T2, Prostaglandin G/H synthase 1 (Ovis aries, UniProt P05979); assay: Non-covalent binding affinity to recombinant ovine COX1 using arachidonic acid as substrate assessed as binding constant preincubated with compound for 10 to 40 mins followed by substrate addition and measured after 10 mins by LC-MS/MS analysis
T2 sequence (P05979 whole entry): T1 sequence (whole entry)

[3] = target: T1, Prostaglandin G/H synthase 1 (Ovis aries); assay: Covalent inhibition of recombinant ovine COX1 using arachidonic acid as substrate assessed as inhibition rate preincubated with compound for 10 to 40 mins followed by substrate addition and measured after 10 mins by LC-MS/MS analysis; details: time 20-50 min
[4] = target: T1, Prostaglandin G/H synthase 1 (Ovis aries); assay: Inhibition of recombinant ovine COX1 using arachidonic acid as substrate assessed as Kinact/Ki ratio preincubated with compound for 10 to 40 mins followed by substrate addition and measured after 10 mins by LC-MS/MS analysis; details: time 20-50 min
[5] = target: T1, Prostaglandin G/H synthase 1 (Ovis aries); assay: Covalent inhibition of recombinant ovine COX1 using arachidonic acid as substrate assessed as reduction in PGE2 production preincubated with compound for 6 hrs followed by substrate addition for 10 mins and measured after 8 hrs of dialysis by LC-MS/MS analysis; details: time 370.0 min
[6] = target: T1, Prostaglandin G/H synthase 1 (Ovis aries); assay: Covalent inhibition of recombinant ovine COX1 using arachidonic acid as substrate assessed as acetylation at Ser530 residues preincubated with compound followed by substrate addition and measured after 10 mins by LC-MS/MS analysis
A549 = assay: Cytotoxicity against human A549 cells assessed as reduction in cell viability at 15 uM by MTT assay; type: toxicity, cell-based; details: a549, 15 µM
[7] = target: T1, Prostaglandin G/H synthase 1 (Ovis aries); assay: Covalent inhibition of recombinant ovine COX1 using arachidonic acid as substrate assessed as reduction in PGE2 production at 10 uM preincubated with compound for 16 hrs followed by substrate addition for 10 mins in the presence of AcSNAC and measured after 16 hrs of dialysis by LC-MS/MS analysis; details: time 970.0 min
[8] = target: Prostaglandin G/H synthase 1 (Homo sapiens) (UniProt P23219); assay: Covalent inhibition of COX1 in LPS-treated human A549 cells using arachidonic acid as substrate assessed as reduction in PGE2 production at 15 uM preincubated with compound for 24 hrs followed by washout and measured after 20 mins of substrate addition by LC-MS/MS analysis
[9] = target: T1, Prostaglandin G/H synthase 1 (Ovis aries); assay: Covalent inhibition of recombinant ovine COX1 using arachidonic acid as substrate assessed as reduction in PGE2 production at 40 uM preincubated with compound for […] followed by substrate addition and measured after 10 mins in the presence of AcSNAC by LC-MS/MS analysis; details: time 370.0 min
[10] = target: Prostaglandin G/H synthase 1 (Homo sapiens) (UniProt P23219); assay: Covalent inhibition of COX1 in LPS-treated human A549 cells using arachidonic acid as substrate assessed as reduction in PGE2 production at 40 uM preincubated with compound for 12 hrs followed by washout and measured after 20 mins of substrate addition by LC-MS/MS analysis
[11] = target: T1, Prostaglandin G/H synthase 1 (Ovis aries); assay: Covalent inhibition of recombinant ovine COX1 using arachidonic acid as substrate assessed as reduction in PGE2 production preincubated with compound followed by substrate addition and measured after 10 mins by LC-MS/MS analysis relative to control
[12] = target: T1, Prostaglandin G/H synthase 1 (Ovis aries); assay: Covalent inhibition of recombinant ovine COX1 using arachidonic acid as substrate assessed as residual activity preincubated with compound for 6 hrs followed by substrate addition for 10 mins and measured after 8 hrs of dialysis by LC-MS/MS analysis relative to control; details: time 370.0 min
[13] = target: T2, Prostaglandin G/H synthase 1; assay: Covalent inhibition of recombinant ovine COX-1 using arachidonic acid as substrate assessed as reduction in PGE2 production preincubated with compound for 1 hrs followed by substrate addition and measured after 10 mins by LC-MS/MS analysis
[14] = target: T2, Prostaglandin G/H synthase 1; assay: Covalent inhibition of recombinant ovine COX-1 using arachidonic acid as substrate assessed as reduction in PGE2 production preincubated with compound for 5 hrs followed by substrate addition and measured after 10 mins by LC-MS/MS analysis
[15] = target: Prostaglandin G/H synthase 1 (Homo sapiens) (UniProt P23219); assay: Covalent inhibition of COX1 in LPS-treated human A549 cells using arachidonic acid as substrate assessed as reduction in PGE2 production at 40 uM measured every 24 hrs by LC-MS/MS analysis; details: time <= 48.0 hrs, TDE = time-dependent effect

inhibition [1]	pKi [2]	Kinact [3]	Ratio [4]	SMILES	Activity (A549)	also measured
Tde	5.05	2.2 10^-2/min	2.58 10^-3/min/µM	CCCCC#CCNC(=O)c1ccccc1SC(C)=O	Non-Toxic	inhibition [5]: Active; inhibition [6]: Active
–	–	–	–	CCCCC#CCNC(=O)c1ccccc1S	Non-Toxic	inhibition [7]: Active; inhibition [8]: 60%
–	–	–	–	CCCCCCNC(=O)c1ccccc1S	–	inhibition [9]: Active; inhibition [10]: Active
–	–	–	–	CCCCC#CCNC(=O)c1ccccc1SC	–	inhibition [11]: 97%; Activity [12]: 83%
Tde	–	–	–	CC(=O)Oc1ccccc1C(=O)O [ASPIRIN]	Non-Toxic	–
Tde	4.82	2.5 10^-2/min	2.4 10^-3/min/µM	C#CCNC(=O)c1ccccc1SC(C)=O	–	–
–	4.47	2.1 10^-2/min	0.65 10^-3/min/µM	CCCCCCNC(=O)c1ccccc1SC(C)=O	–	pIC50 [13]: 4.30; pIC50 [14]: 5.00; inhibition [6]: Active; inhibition [15]: Tde; inhibition [10]: Active
